Results taken from patent US20250152585A1, “PHARMACEUTICAL COMPOUND” (Duke Street Bio Limited, priority 2022, published 2025).
Read-outs that look alike come from different tables or passages of the source.

Experiments:
[1] = target: T1, full length N-terminally FLAG-tagged PARP1 (Homo sapiens, UniProt P09874); assay: PARP1 probe displacement HTRF assay; conditions: for Kd: binned Kd; for Selectivity: PARP1 over PARP2, ratio Kd (PARP2)/Kd (PARP1)
[2] = target: T1, full length N-terminally FLAG-tagged PARP1; assay: PARP1 biochemical DELFIA assay (auto-PARylation); parameters: recombinant full length human N-terminally FLAG-tagged PARP1
[3] = target: T2, N-terminally FLAG-tagged PARP2 (amino acids 1-583) (Homo sapiens, UniProt Q9UGN5); assay: PARP2 probe displacement HTRF assay; assay type: binding; conditions: binned Kd
T2 construct: N-terminally FLAG-tagged PARP2 (amino acids 1-583)
Description: Data analysis was performed identical as for PARP1.

[4] = binned IC50, biochemical auto-PARylation assay
[5] = read-out: PARP1 HTRF, probe displacement HTRF
[6] = read-out: PARP1 HTRF, PARP1 probe displacement HTRF
[7] = binned IC50, PARP1 biochemical DELFIA assay
[8] = PARP1 HTRF, PARP1 probe displacement HTRF

T1 sequence (P09874 whole entry): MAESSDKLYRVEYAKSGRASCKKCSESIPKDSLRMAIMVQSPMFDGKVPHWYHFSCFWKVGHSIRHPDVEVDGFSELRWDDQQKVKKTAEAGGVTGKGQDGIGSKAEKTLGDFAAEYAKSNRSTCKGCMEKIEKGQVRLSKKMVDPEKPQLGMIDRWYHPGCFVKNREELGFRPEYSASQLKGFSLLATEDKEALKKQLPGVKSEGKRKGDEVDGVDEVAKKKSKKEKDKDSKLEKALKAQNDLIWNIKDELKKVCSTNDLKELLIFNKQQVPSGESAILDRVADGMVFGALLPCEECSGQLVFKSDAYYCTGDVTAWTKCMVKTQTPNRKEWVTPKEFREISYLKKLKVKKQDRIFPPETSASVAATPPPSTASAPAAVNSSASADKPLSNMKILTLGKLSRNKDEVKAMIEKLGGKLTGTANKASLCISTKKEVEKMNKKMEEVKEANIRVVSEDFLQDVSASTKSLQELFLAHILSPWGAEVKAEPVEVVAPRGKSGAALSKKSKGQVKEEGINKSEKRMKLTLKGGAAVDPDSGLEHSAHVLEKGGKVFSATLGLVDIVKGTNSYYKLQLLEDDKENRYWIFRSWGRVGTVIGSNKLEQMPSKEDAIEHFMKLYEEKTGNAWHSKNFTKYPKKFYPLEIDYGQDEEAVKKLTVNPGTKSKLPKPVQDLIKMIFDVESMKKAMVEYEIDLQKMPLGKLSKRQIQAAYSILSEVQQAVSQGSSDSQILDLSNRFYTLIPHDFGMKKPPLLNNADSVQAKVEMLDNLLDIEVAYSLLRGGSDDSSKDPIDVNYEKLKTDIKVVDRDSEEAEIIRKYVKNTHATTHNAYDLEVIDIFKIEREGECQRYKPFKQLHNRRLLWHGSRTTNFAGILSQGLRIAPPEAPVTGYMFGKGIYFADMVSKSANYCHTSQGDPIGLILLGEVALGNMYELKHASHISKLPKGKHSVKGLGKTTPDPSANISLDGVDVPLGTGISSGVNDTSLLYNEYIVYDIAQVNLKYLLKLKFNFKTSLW
T2 sequence (Q9UGN5 whole entry, the tested form may be a part): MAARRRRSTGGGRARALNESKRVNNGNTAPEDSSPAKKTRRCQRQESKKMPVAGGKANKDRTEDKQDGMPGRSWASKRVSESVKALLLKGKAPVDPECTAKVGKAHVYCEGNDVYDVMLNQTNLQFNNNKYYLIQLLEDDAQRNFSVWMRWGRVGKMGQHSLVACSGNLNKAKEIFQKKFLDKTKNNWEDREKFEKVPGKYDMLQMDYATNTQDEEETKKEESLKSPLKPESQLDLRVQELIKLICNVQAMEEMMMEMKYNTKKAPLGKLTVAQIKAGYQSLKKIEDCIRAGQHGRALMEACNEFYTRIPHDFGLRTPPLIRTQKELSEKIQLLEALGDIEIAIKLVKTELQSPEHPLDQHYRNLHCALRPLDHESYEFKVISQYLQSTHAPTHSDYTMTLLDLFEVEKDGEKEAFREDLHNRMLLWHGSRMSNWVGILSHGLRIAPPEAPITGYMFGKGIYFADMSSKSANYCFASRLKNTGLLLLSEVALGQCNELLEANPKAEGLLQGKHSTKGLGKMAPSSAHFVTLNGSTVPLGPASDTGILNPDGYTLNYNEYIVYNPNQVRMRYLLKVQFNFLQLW

Structure (SMILES)	Kd ([1]; PARP1 HTRF, probe displacement HTRF) [nM]	Selectivity ([1]; probe displacement HTRF)	IC50 [2, 4] [nM]	Kd ([3]; probe displacement HTRF) [nM]	Kd [1, 5] [nM]	Kd [1, 6] [nM]	IC50 [2, 7] [nM]	Kd ([3]; PARP2 probe displacement HTRF) [nM]	Kd [1, 8] [nM]
CNC(=O)c1ccc(N2CCC(N3CC(c4cc5cccc(F)c5c(=O)[nH]4)C(F)(F)C3)CC2)cn1 (racemic) [Compound 393rac, 5-(4-(3,3-difluoro-4-(8-fluoro-1-oxo-1,2-dihydroisoquinolin-3-yl)pyrrolidin-1-yl)piperidin-1-yl)-N-methylpicolinamide]	< 10	+++ (+++ indicate a value of at least 100)	< 10	1000 to 10000	–	–	–	–	–
CNC(=O)c1ncc(N2CCC(N3CCC(c4cc5ccc(F)cc5c(=O)[nH]4)C3)CC2)c(Cl)n1 (racemic) [Compound 400rac]	–	+++ (+++ indicate a value of at least 100)	< 10	100 to 1000	< 10	–	–	–	–
CNC(=O)c1ccc(N2CCC(N3CCC(c4[nH]c(=O)c5cc(F)ccc5c4F)C3)CC2)c(F)n1 (racemic) [Compound 403rac]	–	+++ (+++ indicate a value of at least 100)	< 10	10 to 100	< 10	–	–	–	–
CNC(=O)c1ccc(N2CCC(N3CCC(c4cc5c(c(=O)[nH]4)COCC5)C3)CC2)cn1 (racemic) [Compound 405rac]	–	+++ (+++ indicate a value of at least 100)	< 10	100 to 1000	< 10	–	–	–	–
CCc1ccc(C2CC(=O)N(C3CCN(c4ccc(C(=O)NC)nc4)CC3)C2)[nH]c1=O (racemic) [Compound 406rac]	–	+++ (+++ indicate a value of at least 100)	< 10	> 10000	< 10	–	–	–	–
CNC1(c2ccc(N3CCC(N4CCC(c5nc6ccccc6c(=O)[nH]5)C4)CC3)cn2)CC1 (racemic) [Compound 412rac]	–	+ (+ indicates a value of 10 to less than 50)	100 to 1000	> 10000	100 to 1000	–	–	–	–
O=c1[nH]c2ccc(N3CCC(N4CCC(c5cc6ccccc6c(=O)[nH]5)C4)CC3)cc2[nH]1 (racemic) [Compound 413rac]	–	+++ (+++ indicate a value of at least 100)	< 10	100 to 1000	< 10	–	–	–	–
CS(=O)(=O)NC(=O)c1ccc(N2CCC(N3CCC(c4cc5ccccc5c(=O)[nH]4)C3)CC2)cn1 (racemic) [Compound 414rac]	–	++ (++ indicates a value of 50 to less than 100)	10 to 100	100 to 1000	10 to 100	–	–	–	–
CCc1ccc(C2(F)CCN(C3CCN(c4ccc(C(=O)NC)nc4F)CC3)C2)[nH]c1=O (racemic) [Compound 415rac]	–	+++ (+++ indicate a value of at least 100)	10 to 100	> 10000	< 10	–	–	–	–
O=c1[nH]c(C2CCN(C3CCC(F)(F)CC3)C2)nc2ccccc12 (single isomer, unassigned) [Compound 4a]	–	− (− indicates a value of less than 10)	–	–	–	100 to 1000	100 to 1000	100 to 1000	–
CNC(=O)c1ccc(N2CCC(N3CCCC(c4nc5ccccc5c(=O)[nH]4)C3)CC2)cn1 (single isomer, unassigned) [Compound 6a, N-methyl-5-(3-(4-oxo-3,4-dihydroquinazolin-2-yl)-[1,4′-bipiperidin]-1′-yl)picolinamide]	–	+++ (+++ indicate a value of at least 100)	–	–	–	–	< 10	> 10000	< 10
CNC(=O)c1ccc(N2CCC(N3CCCC(c4nc5ccccc5c(=O)[nH]4)C3)CC2)cn1 (single isomer, unassigned) [Compound 6b, N-methyl-5-(3-(4-oxo-3,4-dihydroquinazolin-2-yl)-[1,4′-bipiperidin]-1′-yl)picolinamide]	–	+ (+ indicates a value of 10 to less than 50)	–	–	–	–	100 to 1000	1000 to 10000	100 to 1000
CNC(=O)c1ccc(OCCCN2CCCC(c3nc4ccccc4c(=O)[nH]3)C2)cn1 (single isomer, unassigned) [Compound 7a]	–	+++ (+++ indicate a value of at least 100)	–	–	–	< 10	10 to 100	100 to 1000	–
CNC(=O)c1ccc(N2CCC(CN3CCCC(c4nc5ccccc5c(=O)[nH]4)C3)CC2)cn1 (single isomer, unassigned) [Compound 9a]	–	+++ (+++ indicate a value of at least 100)	–	–	–	10 to 100	10 to 100	1000 to 10000	–
CNC(=O)c1ccc(N2CCC(CN3CCCC(c4nc5ccccc5c(=O)[nH]4)C3)CC2)cn1 (single isomer, unassigned) [Compound 9b]	–	− (− indicates a value of less than 10)	–	–	–	10 to 100	10 to 100	100 to 1000	–
CNC(=O)c1ccc(N2CCC(N3CCC(c4nc5ccccc5c(=O)[nH]4)C3)CC2)cn1 (single isomer, unassigned) [Compound 10a, N-methyl-5-(4-(3-(4-oxo-3,4-dihydroquinazolin-2-yl)pyrrolidin-1-yl)piperidin-1-yl)picolinamide]	–	+++ (+++ indicate a value of at least 100)	–	–	–	–	10 to 100	100 to 1000	< 10
O=c1[nH]c(CC2CCCN(C3CCC(F)(F)CC3)C2)nc2ccccc12 (single isomer, unassigned) [Compound 11a]	–	− (− indicates a value of less than 10)	–	–	–	100 to 1000	1000 to 10000	> 10000	–
O=c1[nH]c(CC2CCCN(C3CCC(F)(F)CC3)C2)nc2ccccc12 (single isomer, unassigned) [Compound 11b]	–	− (− indicates a value of less than 10)	–	–	–	100 to 1000	100 to 1000	1000 to 10000	–
CNC(=O)c1ccc(OCCN2CCCC(Cc3nc4ccccc4c(=O)[nH]3)C2)cn1 (single isomer, unassigned) [Compound 14b, N-methyl-5-(2-(3-((4-oxo-3,4-dihydroquinazolin-2-yl)methyl)piperidin-1-yl)ethoxy)picolinamide]	–	+++ (+++ indicate a value of at least 100)	–	–	–	–	10 to 100	> 10000	10 to 100
CNC(=O)c1ccc(N2CC(N3CCCC(c4nc5ccccc5c(=O)[nH]4)C3)C2)cn1 (single isomer, unassigned) [Compound 23b]	–	− (− indicates a value of less than 10)	–	–	–	1000 to 10000	1000 to 10000	> 10000	–
CCc1cnc(C2CCCN(C3CCN(c4ccc(C(=O)NC)nc4)CC3)C2)[nH]c1=O (single isomer, unassigned) [Compound 31b]	–	+++ (+++ indicate a value of at least 100)	–	–	–	10 to 100	10 to 100	> 10000	–
O=c1[nH]c(C2CCN(C3CCN(c4ccccc4)CC3)C2)nc2ccccc12 (single isomer, unassigned) [Compound 32a]	–	+ (+ indicates a value of 10 to less than 50)	–	–	–	10 to 100	10 to 100	1000 to 10000	–
CNC(=O)c1ccc(N2CCC(N3CCCC(c4ncc(C)c(=O)[nH]4)C3)CC2)cn1 (single isomer, unassigned) [Compound 33b]	–	++ (++ indicates a value of 50 to less than 100)	–	–	–	10 to 100	10 to 100	> 10000	–
N#Cc1ccc(N2CCC(N3CCC(c4nc5ccccc5c(=O)[nH]4)C3)CC2)cc1 (single isomer, unassigned) [Compound 34a]	–	− (− indicates a value of less than 10)	–	–	–	10 to 100	10 to 100	100 to 1000	–
